Tested on: 253994-281-T-J1-PDC KRAS-mutant spheroids with HUVEC/MSC, viability
Test: Anticancer human tumor 253994-281-T-J1-PDC patient-derived colorectal carcinoma cell line growth inhibition [KRAS2]
Conditions: for IC50: curve of first compound; for viability, T/C: stronger effect = lower value
How it was run: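 Combination screen of spheroid viability in tumor-cell co-cultures with endothelial (HUVEC) and mesenchymal stem cell stroma. Each agent was tested in half-log dilutions, topping at clinical Cmax or at 10 microM without a known Cmax.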
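Further: spheroids exposed to agents for seven days before readout.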
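Wherever viability, T/C is given: percent of DMSO vehicle control viability.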

CC1OCC2(CCN(c3cnc(Sc4ccnc(N)c4Cl)c(N)n3)CC2)C1N (stereo not given) + COc1cc2nc(C)nc(NC(C)c3cc(N)cc(C(F)(F)F)c3)c2cc1OC1CCOC1
IC50 (second compound 0.1 µM): > 10 µM | IC50 (second compound 0.316 µM): 9.31 µM | IC50 (second compound 1 µM): 7.65 µM | IC50 (second compound 3.16 µM): > 10 µM | IC50 (second compound 10 µM): 3.31 µM | viability, T/C (second compound 0.1 µM, first compound 0.0316 µM): 110% | viability, T/C (second compound 0.1 µM, first compound 0.1 µM): 86.2% | viability, T/C (second compound 0.1 µM, first compound 0.316 µM): 91.9% | viability, T/C (second compound 0.1 µM, first compound 1 µM): 74.5% | viability, T/C (second compound 0.1 µM, first compound 3.16 µM): 68% | viability, T/C (second compound 0.1 µM, first compound 10 µM): 48% | viability, T/C (second compound 0.316 µM, first compound 0.0316 µM): 87.5% | viability, T/C (second compound 0.316 µM, first compound 0.1 µM): 87.6% | viability, T/C (second compound 0.316 µM, first compound 0.316 µM): 81.6% | viability, T/C (second compound 0.316 µM, first compound 1 µM): 68% | viability, T/C (second compound 0.316 µM, first compound 3.16 µM): 58.8% | viability, T/C (second compound 0.316 µM, first compound 10 µM): 48.9% | viability, T/C (second compound 1 µM, first compound 0.0316 µM): 101% | viability, T/C (second compound 1 µM, first compound 0.1 µM): 91.2% | viability, T/C (second compound 1 µM, first compound 0.316 µM): 78.5% | viability, T/C (second compound 1 µM, first compound 1 µM): 74.7% | viability, T/C (second compound 1 µM, first compound 3.16 µM): 58.8% | viability, T/C (second compound 1 µM, first compound 10 µM): 46.8% | viability, T/C (second compound 3.16 µM, first compound 0.0316 µM): 83.6% | viability, T/C (second compound 3.16 µM, first compound 0.1 µM): 87.1% | viability, T/C (second compound 3.16 µM, first compound 0.316 µM): 90.6% | viability, T/C (second compound 3.16 µM, first compound 1 µM): 78% | viability, T/C (second compound 3.16 µM, first compound 3.16 µM): 71.1% | viability, T/C (second compound 3.16 µM, first compound 10 µM): 52.3% | viability, T/C (second compound 10 µM, first compound 0.0316 µM): 79.2% | viability, T/C (second compound 10 µM, first compound 0.1 µM): 93.1% | viability, T/C (second compound 10 µM, first compound 0.316 µM): 67.2% | viability, T/C (second compound 10 µM, first compound 1 µM): 64.2% | viability, T/C (second compound 10 µM, first compound 3.16 µM): 54.4% | viability, T/C (second compound 10 µM, first compound 10 µM): 26.8%

From PubChem BioAssay AID1963874 (Molecular Pharmacology Branch, DTP, NCI, 2024)
